Laboratory results as given in patent US20210353633A1, “CYCLODEXTRIN-BASED FORMULATION OF A BCL-2 INHIBITOR” (LES LABORATOIRES SERVIER, priority 2018, published 2021).
Structures can show the parent of a compound that is named as a salt. Where two headings read alike, the source gives them in different places.

Test: Test of maximum solubility of Compound A, HCl in a HP-β-cyclodextrin as a function of the pH
Format: physicochemical
Details: Cavitron W7HP5 solution, aqueous with cosolvent or surfactant or cyclodextrin, thermodynamic from solid, Cavitron W7HP5 20% by weight, read-out: Solubility after 24 h
Experimental: The solubility of Compound A, HCl was studied in the presence of a HP-β-cyclodextrin as a function of the pH by means of various buffers (acetate pH=4 and phosphate pH=7.4).
0.75 g of sodium acetate trihydrate (NaC2H3O2, 3H2O) is introduced into a 250 mL graduated flask. 3.5 mL of 2 N acetic acid solution (produced from glacial acetic acid) are added. The volume is then made up to 250 mL by means of 0.9% NaCl solution, and the whole is then stirred. The pH is then adjusted to 4 by means of 1 N HCl solution.
2.075 g of monobasic potassium phosphate (KH2PO4) and 0.238 g of dibasic sodium phosphate (Na2HPO4) are dissolved in 100 mL of water. The whole is stirred until solubilisation is complete. The volume is then made up to 250 mL by means of 0.9% NaCl solution. The pH is adjusted to the desired value (7.4) by means of 1N sodium hydroxide solution.
2 g of the cyclodextrin studied (Cavitron™ W7HP5) are weighed into a 10 mL graduated flask. The volume is then made up to 10 mL by means of a water/0.9% NaCl mixture (80/20) or an acetate or phosphate buffer solution, depending on the desired pH.
Approximately 10 mg of Compound A, HCl are weighed. 1 mL of the medium containing the carrier to be tested, that is to say Cavitron™ W7HP5 without pH adjustment, Cavitron™ W7HP5 adjusted to pH=4 or Cavitron™ W7HP5 adjusted to pH=7.4, is then added. The whole is then placed under magnetic stirring. Then, 5 mg of Compound A, HCl are added. The operation is repeated if the compound solubilises. The mixture is stirred for 24 hours. The suspension so obtained is passed through a 0.45 μm filter before being analysed by HPLC chromatography.

- solubility at 24 h (pH = 3.8, i.e. pH not adjusted): 24.6 mg/mL
- solubility at 24 h (pH = 4 (acetate buffer)): 13 mg/mL
- solubility at 24 h (pH = 7.4 (phosphate buffer)): 1.69 mg/mL
Compound: Cc1c(N(C(=O)c2cc(-c3cc(Cl)ccc3C(=O)N3Cc4ccccc4C[C@H]3CN3CCOCC3)n(C)c2C)c2ccc(O)cc2)cc(C#N)n1C [Compound A, HCl, 5-(5-chloro-2-{[(3S)-3-(morpholin-4-ylmethyl)-3,4-dihydroisoquinolin-2(1H)-yl]carbonyl}phenyl)-N-(5-cyano-1,2-dimethyl-1H-pyrrol-3-yl)-N-(4-hydroxyphenyl)-1,2-dimethyl-1H-pyrrole-3-carboxamide]
